Legend:
renin in human plasma = target: T1, renin in human plasma (Homo sapiens, UniProt P00797); assay: Inhibition of renin in human plasma (enzymatic in vitro assay, Ang I detected by EIA); assay type: biochemical; details: human plasma from 10 normal donors; human recombinant renin 3 pM; 37° C. for 2 h
T1 construct: host or cells: recombinant enzyme added to human plasma from 10 normal donors
T1 sequence (P00797 67-406): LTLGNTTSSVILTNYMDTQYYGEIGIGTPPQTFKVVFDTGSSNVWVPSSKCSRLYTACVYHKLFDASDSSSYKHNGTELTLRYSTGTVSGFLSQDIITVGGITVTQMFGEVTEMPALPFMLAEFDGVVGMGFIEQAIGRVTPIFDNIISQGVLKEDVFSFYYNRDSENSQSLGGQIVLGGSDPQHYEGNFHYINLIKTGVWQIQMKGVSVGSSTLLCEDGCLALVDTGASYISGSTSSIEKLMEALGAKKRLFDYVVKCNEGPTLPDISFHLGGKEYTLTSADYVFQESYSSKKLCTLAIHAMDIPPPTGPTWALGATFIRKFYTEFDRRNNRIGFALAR
Procedure: Inhibition of Renin in Human Plasma
The enzymatic in vitro assay was performed in 384-well polypropylene plates (Nunc). The assay buffer consisted of PBS (Gibco BRL) including 1 mM EDTA and 0.1% BSA. The reaction mixture was composed of 80 μL per well of human plasma, enzyme, Ang I-antibodies mix and 5 μL of renin inhibitors in DMSO. The human plasma mix was premixed at 4° C. and consists of • human plasma from 10 normal donors • human recombinant renin (3 pM) • Ang I-antibodies. The mixtures were then incubated at 37° C. for 2 h.
To determine the enzymatic activity and its inhibition, the accumulated Ang I was detected by an enzyme immunoassay (EIA) in 384-well plates (Nunc). 10 μL of the reaction mixture or standards were transferred to immuno plates which were previously coated with a covalent complex of Ang I and bovine serum albumin (Ang I-BSA). 70 μL assay buffer were added and the plates were incubated at 4° C. overnight. The plates were washed 3 times with PBS including 0.01% Tween 20, and then incubated for 2 h at RT with an anti rabbit-peroxidase coupled antibody (WA 934, Amersham).

human recombinant renin = target: T2, human recombinant renin (Homo sapiens, UniProt P00797); assay: Inhibition of human recombinant renin (enzymatic in vitro assay in buffer, Ang I detected by EIA); assay type: biochemical; details: assay buffer PBS, 1 mM EDTA, 0.1% BSA; human recombinant renin 40 pM; 37° C. for 3 h
T2 sequence (P00797 67-406): T1 sequence (P00797 67-406)
Procedure: Inhibition of Human Recombinant Renin
The enzymatic in vitro assay was performed in 384-well polypropylene plates (Nunc). The assay buffer consisted of PBS (Gibco BRL) including 1 mM EDTA and 0.1% BSA. The reaction mixture were composed of 47.5 μL per well of an enzyme mix and 2.5 μL of renin inhibitors in DMSO. The enzyme mix was premixed at 4° C. and consists of the following components: • human recombinant renin (40 pM) • synthetic human angiotensin(1-14) (0.5 μM) • hydroxyquinoline sulfate (1 mM) The mixtures were then incubated at 37° C. for 3 h. The enzyme reaction was stopped by placing the reaction plate on wet ice.
To determine the enzymatic activity and its inhibition, the accumulated Ang I was detected by an enzyme immunoassay (EIA) in 384-well plates (Nunc). 5 μL of the reaction mixture or standards were transferred to immuno plates which were previously coated with a covalent complex of Ang I and bovine serum albumin (Ang I-BSA). 75 μL of Ang I-antibodies in assay buffer above including 0.01% Tween 20 were added and the plates were incubated at 4° C. overnight.
An alternative protocol could be used by stopping the enzymatic reaction with 0.02N final concentration of HCl. 5 μL of the reaction mixture or standards were transferred to immuno plates and 75 μL of Ang I-antibodies in assay buffer above including 0.01% Tween 20 were added and the plates were incubate at RT for 4 h. […]

| IC50 (renin in human plasma) | IC50 (human recombinant renin) | Structure (SMILES) |
| --- | --- | --- |
| 6 nM | 0.022 nM | COCCCc1cc(CN(C(=O)[C@H]2CNCC[C@@H]2c2ccc(OCCOc3c(Cl)cc(C)cc3Cl)nc2)C2CC2)cc(OCCOC)c1 [Example 2, (3R,4S)-N-Cyclopropyl-4-{6-[2-(2,6-dichloro-4-methylphenoxy)ethoxy]pyridin-3-yl}-N-[3-(2-methoxyethoxy)-5-(3-methoxypropyl)benzyl]piperidine-3-carboxamide] |
| 2.6 nM | 0.036 nM | COCCCc1cc(CN(C(=O)[C@H]2CNCC[C@@H]2c2ccc(OCCOc3c(Cl)cc(C)cc3Cl)cc2)C2CC2)cc(OC[C@@H]2C[C@H]2CO)c1 [Example 8] |

— patent US8076359B2, “Renin inhibitors” (Merck Canada Inc., priority 2006, dated 2011)
